Laboratory results: the NIST ThermoML archive (doi:10.1021/je900757k)

Experiment: isobaric coefficient of expansion
Details: Liquid, DSC

CCCCCCCCCCCCCCC [pentadecane]
isobaric coefficient of expansion
Details | 298.15 K | 308.15 K | 318.15 K | 328.15 K | 338.15 K | 348.15 K
5000 kPa | 0.000896 1/K | 0.000898 1/K | 0.000901 1/K | 0.000904 1/K | 0.000914 1/K | 0.000925 1/K
10000 kPa | 0.000871 1/K | 0.000873 1/K | 0.000873 1/K | 0.000873 1/K | 0.000883 1/K | 0.000886 1/K
15000 kPa | 0.000848 1/K | 0.000848 1/K | 0.00085 1/K | 0.000846 1/K | 0.000846 1/K | 0.000854 1/K
20000 kPa | 0.000825 1/K | 0.000824 1/K | 0.000824 1/K | 0.000823 1/K | 0.000821 1/K | 0.000826 1/K
25000 kPa | 0.000805 1/K | 0.000803 1/K | 0.000803 1/K | 0.000798 1/K | 0.000798 1/K | 0.000801 1/K
30000 kPa | 0.000793 1/K | 0.000786 1/K | 0.000786 1/K | 0.000781 1/K | 0.000782 1/K | 0.000783 1/K
35000 kPa | 0.000772 1/K | 0.000767 1/K | 0.000764 1/K | 0.000762 1/K | 0.00076 1/K | 0.000758 1/K
40000 kPa | 0.000756 1/K | 0.000751 1/K | 0.000746 1/K | 0.000744 1/K | 0.000738 1/K | 0.000737 1/K
45000 kPa | 0.000742 1/K | 0.000734 1/K | 0.000731 1/K | 0.000726 1/K | 0.000724 1/K | 0.00072 1/K
50000 kPa | 0.00073 1/K | 0.000721 1/K | 0.000718 1/K | 0.00071 1/K | 0.00071 1/K | 0.000705 1/K
55000 kPa | 0.000717 1/K | 0.000709 1/K | 0.000705 1/K | 0.000699 1/K | 0.000697 1/K | 0.000694 1/K

CCCCCCCCCC [decane]
isobaric coefficient of expansion
Details | 278.15 K | 288.15 K | 298.15 K | 308.15 K | 318.15 K | 328.15 K | 338.15 K | 348.15 K
5000 kPa | 0.000969 1/K | 0.000985 1/K | 0.001 1/K | 0.00102 1/K | 0.00103 1/K | 0.00105 1/K | 0.00107 1/K | 0.00108 1/K
10000 kPa | 0.000945 1/K | 0.000958 1/K | 0.000975 1/K | 0.000988 1/K | 0.001 1/K | 0.00101 1/K | 0.00103 1/K | 0.00103 1/K
15000 kPa | 0.000922 1/K | 0.000933 1/K | 0.000949 1/K | 0.000956 1/K | 0.00097 1/K | 0.000977 1/K | 0.000987 1/K | 0.000992 1/K
20000 kPa | 0.000899 1/K | 0.000907 1/K | 0.000918 1/K | 0.000928 1/K | 0.000935 1/K | 0.000942 1/K | 0.00095 1/K | 0.000956 1/K
25000 kPa | 0.000878 1/K | 0.000886 1/K | 0.000896 1/K | 0.000902 1/K | 0.000907 1/K | 0.000915 1/K | 0.000919 1/K | 0.000922 1/K
30000 kPa | 0.000859 1/K | 0.000868 1/K | 0.000871 1/K | 0.000878 1/K | 0.000883 1/K | 0.000885 1/K | 0.000891 1/K | 0.000893 1/K
35000 kPa | 0.000843 1/K | 0.000846 1/K | 0.000849 1/K | 0.000856 1/K | 0.000858 1/K | 0.000862 1/K | 0.000862 1/K | 0.000865 1/K
40000 kPa | 0.000817 1/K | 0.000823 1/K | 0.000829 1/K | 0.000834 1/K | 0.000833 1/K | 0.000833 1/K | 0.000836 1/K | 0.000835 1/K
45000 kPa | 0.000807 1/K | 0.000812 1/K | 0.000812 1/K | 0.000812 1/K | 0.000815 1/K | 0.000815 1/K | 0.000816 1/K | 0.000816 1/K
50000 kPa | 0.000793 1/K | 0.000797 1/K | 0.000794 1/K | 0.000796 1/K | 0.000802 1/K | 0.000797 1/K | 0.000796 1/K | 0.000795 1/K
55000 kPa | 0.000784 1/K | 0.00078 1/K | 0.00078 1/K | 0.000782 1/K | 0.000781 1/K | 0.000781 1/K | 0.000779 1/K | 0.000778 1/K

ClC(Cl)(Cl)Cl [tetrachloromethane]
isobaric coefficient of expansion
Details | 278.15 K | 288.15 K | 298.15 K | 308.15 K | 318.15 K | 328.15 K | 338.15 K | 348.15 K
5000 kPa | 0.00114 1/K | 0.00116 1/K | 0.00119 1/K | 0.00121 1/K | 0.00124 1/K | 0.00126 1/K | 0.0013 1/K | 0.00132 1/K
10000 kPa | 0.00112 1/K | 0.00113 1/K | 0.00116 1/K | 0.00117 1/K | 0.0012 1/K | 0.00122 1/K | 0.00125 1/K | 0.00126 1/K
15000 kPa | 0.00108 1/K | 0.0011 1/K | 0.00113 1/K | 0.00114 1/K | 0.00116 1/K | 0.00118 1/K | 0.00119 1/K | 0.00121 1/K
20000 kPa | 0.00106 1/K | 0.00108 1/K | 0.00109 1/K | 0.00111 1/K | 0.00113 1/K | 0.00114 1/K | 0.00115 1/K | 0.00116 1/K
25000 kPa | 0.00104 1/K | 0.00105 1/K | 0.00107 1/K | 0.00108 1/K | 0.00109 1/K | 0.0011 1/K | 0.00111 1/K | 0.00112 1/K
30000 kPa | 0.00102 1/K | 0.00103 1/K | 0.00104 1/K | 0.00105 1/K | 0.00106 1/K | 0.00107 1/K | 0.00108 1/K | 0.00109 1/K
35000 kPa | 0.001 1/K | 0.00101 1/K | 0.00102 1/K | 0.00103 1/K | 0.00104 1/K | 0.00104 1/K | 0.00105 1/K | 0.00105 1/K
40000 kPa | 0.000979 1/K | 0.000985 1/K | 0.000996 1/K | 0.00101 1/K | 0.00101 1/K | 0.00101 1/K | 0.00102 1/K | 0.00102 1/K
45000 kPa | 0.000959 1/K | 0.000967 1/K | 0.000978 1/K | 0.000978 1/K | 0.000986 1/K | 0.000986 1/K | 0.000988 1/K | 0.000993 1/K
50000 kPa | 0.000943 1/K | 0.000949 1/K | 0.000955 1/K | 0.000959 1/K | 0.00097 1/K | 0.000965 1/K | 0.000967 1/K | 0.000969 1/K
55000 kPa | 0.000936 1/K | 0.00093 1/K | 0.000935 1/K | 0.00094 1/K | 0.00095 1/K | 0.000946 1/K | 0.000945 1/K | 0.000947 1/K
